# Data: US10842892B2, “Methods and apparatus for synthesizing imaging agents, and intermediates thereof” (Lantheus Medical Imaging, Inc., priority 2010, dated 2020)
# “And” between values parts separate entries of the source, which are not always exact repeats. Equal entries are not always repeated.
# Columns and labels:
# myocardial ischemia = experiment: imaging agent 1 and ^82Rb PET versus ^99mTc sestamibi SPECT, perfusion defect assessment (phase II); format: in vivo, human
# Protocol: Twenty-six patients (20 men) who underwent ^99mTc sestamibi SPECT and imaging agent 1 PET within 6 months at a single center in a phase II clinical trial were compared to 23 patients (matched by summed difference score (SDS) on SPECT) who underwent ^99mTc sestamibi SPECT and ^82Rb PET (25-50 mCi) within 6 months without change in clinical state. PET was performed with imaging agent 1 at rest (2.3-3.9 mCi) followed 60 min or 24 h later with exercise or adenosine stress (7.3-8.6 mCi). Perfusion defects on SPECT and PET were assessed by computer-assisted visual interpretation, using the standard 17 segment, 5 point-scoring model (0=normal; 4=absent uptake). The extent and severity of ischemia (SDS) was derived from the difference between summed stress score (SSS) and summed rest scores (SRS).
# Twenty six patients (20 men) underwent SPECT and PET within 6-months. PET was performed with imaging agent 1 at rest (2.3-3.9 mCi) followed 60 min (n=18) or 24 h (n=8) later with exercise (n=16) or adenosine (n=10) stress (7.3-8.6 mCi). Image quality of SPECT and PET was consensually assessed by 2 independent blinded readers and graded as excellent, good, or fair. Stress and rest perfusion defects on SPECT and PET were assessed by the same readers by computer-assisted visual interpretation, using the standard 17 segment, 5 point-scoring model (0=normal; 4=absent uptake). The extent and severity of ischemia (summed difference score (SDS)) was derived from the difference between summed stress (SSS) and summed rest scores (SRS). Image quality with PET was excellent in 24 and good in 2 patients. In contrast, there were 7 excellent, 18 good, and 1 fair quality study, p<0.001 by SPECT. In 14 patients with abnormal SPECT (SSS≥4), mean SDS was greater with PET than with SPECT (9.6±1.8 vs. 5.4±0.7, p=0.02). In all 12 patients with normal SPECT (SSS<4), SDS was zero by PET and SPECT.
# healthy volunteers = experiment: single-dose dosimetry and biodistribution trial in healthy subjects (MIRD); format: in vivo, human
# Protocol: The following provides results obtained from a study regarding a single-dose dosimetry, biodistribution, and safety trial of imaging agent 1 in healthy subjects. Whole body PET image data for the 12 healthy volunteers were obtained using imaging agent 1 at approximately 10 minutes, 30 minutes, 50 minutes, 2 hours, 2.5 hours, 3.83 hours, and 4.5 hours post injection. Image data were attenuation corrected at the imaging site, and were quantified based on the Medical Internal Radiation Dose (MIRD) 16 methodology by Dosimetry Analysis Laboratory, CDE Dosimetry Services (CDE) to determine kinetic data in all organs showing significant uptake of activity. Dosimetry estimates were created via kinetic modeling of the quantified image data to determine residence times, and the standard MIRD methodology. These estimates were determined using 3 assumptions regarding urinary bladder voiding intervals (2.0, 3.5, and 4.8 hr). Kinetic data, residence times, and the dosimetry estimates are reported for individuals, and as summary statistics.
# viable left ventricle = experiment: left ventricular viability after myocardial infarction, imaging agent 1 versus FDG; format: in vivo, rat
# Protocol: MI was induced in rats by 30 minutes of\ coronary occlusion followed reperfusion. […] Viable left ventricle was quantified in images as the volume with ≥50% of maximum activity.
# [1] = 12 healthy volunteers, voiding interval 3.5 hours
# [2] = average, voiding interval 3.5 hours
structure (smiles),measurement,setting,value
"CC(C)(C)n1ncc(OCc2ccc(COCC[18F])cc2)c(Cl)c1=O [imaging agent 1, 2-t-butyl-4-chloro-5-[4-(2-(^18F)fluoroethoxymethyl)-benzyloxy]-2H-pyridazin-3-1]",SDS,myocardial ischemia; 12 patients with normal SPECT (SSS<4),zero
same,mean SDS (summed difference score),myocardial ischemia; 14 patients with abnormal SPECT (SSS≥4),9.6±1.8
same,"image quality excellent, number of patients","myocardial ischemia; 26 patients, 2 blinded readers",24
same,"image quality good, number of patients","myocardial ischemia; 26 patients, 2 blinded readers",2
same,"differences in SDS, PET compared to SPECT",myocardial ischemia; patients with normal SPECT (SSS<4),no differences
same,"EDE (effective dose equivalent), Mean",healthy volunteers; 12 healthy volunteers,8.0E−02 rem/mCi
same,"absorbed dose estimate, Mean, Adrenals",healthy volunteers; 12 healthy volunteers,5.8E−02 rem/mCi
same,"absorbed dose estimate, Mean, Brain",healthy volunteers; 12 healthy volunteers,9.4E−02 rem/mCi
same,"absorbed dose estimate, Mean, Breasts",healthy volunteers; 12 healthy volunteers,3.2E−02 rem/mCi
same,"absorbed dose estimate, Mean, Gallbladder Wall",healthy volunteers; 12 healthy volunteers,6.4E−02 rem/mCi
same,"absorbed dose estimate, Mean, LLI Wall",healthy volunteers; 12 healthy volunteers,4.3E−02 rem/mCi
same,"absorbed dose estimate, Mean, Liver",healthy volunteers; 12 healthy volunteers,1.5E−01 rem/mCi
same,"absorbed dose estimate, Mean, Lungs",healthy volunteers; 12 healthy volunteers,4.2E−02 rem/mCi
same,"absorbed dose estimate, Mean, Muscle",healthy volunteers; 12 healthy volunteers,3.8E−02 rem/mCi
same,"absorbed dose estimate, Mean, Osteogenic Cells",healthy volunteers; 12 healthy volunteers,6.9E−02 rem/mCi
same,"absorbed dose estimate, Mean, Ovaries",healthy volunteers; 12 healthy volunteers,4.5E−02 rem/mCi
same,"absorbed dose estimate, Mean, Pancreas",healthy volunteers; 12 healthy volunteers,5.9E−02 rem/mCi
same,"absorbed dose estimate, Mean, Red Marrow",healthy volunteers; 12 healthy volunteers,6.0E−02 rem/mCi
same,"absorbed dose estimate, Mean, Salivary",healthy volunteers; 12 healthy volunteers,1.3E−01 rem/mCi
same,"absorbed dose estimate, Mean, Skin",healthy volunteers; 12 healthy volunteers,2.9E−02 rem/mCi
same,"absorbed dose estimate, Mean, Small Intestine",healthy volunteers; 12 healthy volunteers,4.7E−02 rem/mCi
same,"absorbed dose estimate, Mean, Spleen",healthy volunteers; 12 healthy volunteers,6.0E−02 rem/mCi
same,"absorbed dose estimate, Mean, Stomach Wall",healthy volunteers; 12 healthy volunteers,1.5E−01 rem/mCi
same,"absorbed dose estimate, Mean, Testes",healthy volunteers; 12 healthy volunteers,3.4E−02 rem/mCi
same,"absorbed dose estimate, Mean, Thymus",healthy volunteers; 12 healthy volunteers,4.1E−02 rem/mCi
same,"absorbed dose estimate, Mean, Thyroid",healthy volunteers; 12 healthy volunteers,1.2E−01 rem/mCi
same,"absorbed dose estimate, Mean, Total Body",healthy volunteers; 12 healthy volunteers,4.5E−02 rem/mCi
same,"absorbed dose estimate, Mean, ULI Wall",healthy volunteers; 12 healthy volunteers,4.7E−02 rem/mCi
same,"absorbed dose estimate, Mean, Urinary Bladder Wall",healthy volunteers; 12 healthy volunteers,8.4E−02 rem/mCi
same,"absorbed dose estimate, Mean, Uterus",healthy volunteers; 12 healthy volunteers,4.6E−02 rem/mCi
same,"ED (effective dose), Mean",healthy volunteers; [1],0.071 rem/mCi and 7.1E−02 rem/mCi
same,"absorbed dose estimate, Mean, Heart Wall",healthy volunteers; [1],0.18 rem/mCi and 1.8E−01 rem/mCi
same,"absorbed dose estimate, Mean, Kidneys",healthy volunteers; [1],0.24 rem/mCi and 2.4E−01 rem/mCi
same,"peak uptake, kidneys","healthy volunteers; average, 12 healthy volunteers",approximately 9.4 % of the injected activity
same,"peak uptake, liver","healthy volunteers; average, 12 healthy volunteers",approximately 19.1 % of the injected activity
same,"absorbed dose, heart wall",healthy volunteers; [2],0.048 mSv/MBq
same,"absorbed dose, kidneys",healthy volunteers; [2],0.066 mSv/MBq
same,mean ED (effective dose),healthy volunteers; voiding interval 3.5 hours,0.019 mSv/MBq
same,left ventricular volume,viable left ventricle; control rats before surgery,1.17±0.04 cm3
same,viable left ventricular tissue volume,viable left ventricle; early stage MI (two days post surgery),0.94±0.01 cm3
same,viable left ventricular tissue volume,viable left ventricle; late stage MI (four weeks post surgery),1.18±0.04 cm3
